The structures appear in SMILES notation. Where two headings read alike, the source gives them in different places.

Experimental findings from patent publication EP4685149A1, “NOVEL COMPOUND AS ENDOTHELIAL TO MESENCHYMAL TRANSITION (ENDMT) INHIBITOR, AND PHARMACEUTICAL COMPOSITION COMPRISING SAME” (Korea Institute of Radiological & Medical Sciences, priority 2023, dated 2024) are described below.

This assay has as its system human vascular endothelial cell lines. Description: Inhibition of radiation-induced endothelial cell transition (EndMT), phalloidin immunofluorescence staining. The note with it: 10 uM test substance 1 hour before 10 Gy irradiation, 72 hours after irradiation, relative ratio with IR group (10 Gy alone) as 100%; for activity at 10 µM: Homo sapiens, Endothelial cell, light or radiation study. The format is cell-based. The protocol:
Test substances (Examples 1 to 45) were treated with a 10 mM DMSO solution at a ratio of 1 µL per 1 mL of cell culture medium to a final concentration of 10 uM, and the test substances were treated 1 hour before irradiation on human vascular endothelial cell lines (Promocell, Germany), and then, it was irradiated at an intensity of 10 Gy. 72 hours after irradiation, the human vascular endothelial cell lines were fixed with 10% formalin, and the experiment was conducted according to the manufacturer's method using phalloidin (Invitrogen, USA) to confirm the cytoskeleton filaments that increase during fibrosis. Phalloidin is a protein that binds to the actin of cytoskeleton filaments, and phalloidin conjugated with FITC fluorescent substance made the cytoskeleton filaments appear green when observed under a microscope.
After treatment with the test substance, the area, length and density of phalloidin were measured by using a confocal microscope, and the relative ratio was expressed with the irradiated group (IR group) that was irradiated with 10 Gy alone as 100% (Table 1).

As to `CC#Cc1nc(N[C@@H]2CCc3ccccc32)c2ncn([C@@H]3SC[C@@H](O)[C@H]3O)c2n1` [Example 1, (2R,3R,4S)-2-[6-[[(1R)-indan-1-yl]amino]-2-prop-1-ynyl-purin-9-yl]tetrahydrothiophene-3,4-diol], the activity at 10 µM was 50 to 80% (read-out: Palloidin Area), 50 to 80% (read-out: Palloidin Intensity) and greater than 80% (read-out: Palloidin Length).
On to `CC#Cc1nc(N[C@H]2CCc3ccccc32)c2ncn([C@@H]3SC[C@@H](O)[C@H]3O)c2n1` [Example 2, (2R,3R,4S)-2-[6-[[(1S)-indan-1-yl]amino]-2-prop-1-ynyl-purin-9-yl]tetrahydrothiophene-3,4-diol], for which the activity at 10 µM (read-out: Palloidin Area) is greater than 80%, the activity at 10 µM (read-out: Palloidin Intensity) was greater than 80% and the activity at 10 µM (read-out: Palloidin Length) was greater than 80%.
For the molecule `CCC#Cc1nc(N[C@@H]2CCc3ccccc32)c2ncn([C@@H]3SC[C@@H](O)[C@H]3O)c2n1` [Example 3, (2R,3R,4S)-2-[2-but-1-ynyl-6-[[(1R)-indan-1-yl]amino]purin-9-yl]tetrahydrothiophene-3,4-diol], the activity at 10 µM (read-out: Palloidin Area) is greater than 80%, the activity at 10 µM (read-out: Palloidin Intensity) is greater than 80% and the activity at 10 µM (read-out: Palloidin Length) is greater than 80%.
On to `CCC#Cc1nc(N[C@H]2CCc3ccccc32)c2ncn([C@@H]3SC[C@@H](O)[C@H]3O)c2n1` [Example 4, (2R,3R,4S)-2-[2-but-1-ynyl-6-[[(1S)-indan-1-yl]amino]purin-9-yl]tetrahydrothiophene-3,4-diol], for which the activity at 10 µM is 50 to 80% (read-out: Palloidin Area), 50 to 80% (read-out: Palloidin Intensity) and 50 to 80% (read-out: Palloidin Length).
On to `CCCC#Cc1nc(N[C@@H]2CCc3ccccc32)c2ncn([C@@H]3SC[C@@H](O)[C@H]3O)c2n1` [Example 5, (2R,3R,4S)-2-[6-[[(1R)-indan-1-yl]amino]-2-pent-1-ynyl-purin-9-yl]tetrahydrothiophene-3,4-diol], for which the activity at 10 µM (read-out: Palloidin Area) fell in the range of 50 to 80%, the activity at 10 µM (read-out: Palloidin Intensity) lay in the range of 50 to 80% and the activity at 10 µM (read-out: Palloidin Length) fell in the range of 50 to 80%.
As for `CCCC#Cc1nc(N[C@H]2CCc3ccccc32)c2ncn([C@@H]3SC[C@@H](O)[C@H]3O)c2n1` [Example 6, (2R,3R,4S)-2-[6-[[(1S)-indan-1-yl]amino]-2-pent-1-ynyl-purin-9-yl]tetrahydrothiophene-3,4-diol], the “Palloidin Length” value is on record as “++^+”. In addition, the activity at 10 µM (read-out: Palloidin Area) was 20 to 50%. In addition, the activity at 10 µM (read-out: Palloidin Intensity) is 20 to 50%.
Consider `O[C@@H]1[C@H](O)CS[C@H]1n1cnc2c(NC3Cc4ccccc4C3)nc(Cl)nc21` [Example 7, (2R,3R,4S)-2-[2-chloro-6-(indan-2-ylamino)purin-9-yl]tetrahydrothiophene-3,4-diol], for which the activity at 10 µM runs as follows: (read-out: Palloidin Area) greater than 80%; (read-out: Palloidin Intensity) greater than 80%; (read-out: Palloidin Length) greater than 80%.
Turning to `O[C@@H]1[C@H](O)CS[C@H]1n1cnc2c(NC3CCc4ccccc43)nc(Cl)nc21` (stereo partly drawn) [Example 8, (2R,3R,4S)-2-[2-chloro-6-(indan-1-ylamino)purin-9-yl]tetrahydrothiophene-3,4-diol], the activity at 10 µM reads like this: (read-out: Palloidin Area) 20 to 50%; (read-out: Palloidin Intensity) 20 to 50%; (read-out: Palloidin Length) 20 to 50%.
For the molecule `O[C@@H]1[C@H](O)CS[C@H]1n1cnc2c(N[C@@H]3CCc4ccccc43)nc(Cl)nc21` [Example 9, (2R,3R,4S)-2-[2-chloro-6-[[(1R)-indan-1-yl]amino]purin-9-yl]tetrahydrothiophene-3,4-diol], the activity at 10 µM fell in the range of 50 to 80% (read-out: Palloidin Area), 50 to 80% (read-out: Palloidin Intensity) and 50 to 80% (read-out: Palloidin Length).
In the case of `O[C@@H]1[C@H](O)CS[C@H]1n1cnc2c(N[C@H]3CCc4ccccc43)nc(Cl)nc21` [Example 10, (2R,3R,4S)-2-[2-chloro-6-[[(1S)-indan-1-yl]amino]purin-9-yl]tetrahydrothiophene-3,4-diol], the activity at 10 µM is, setting by setting: (read-out: Palloidin Area) greater than 80%; (read-out: Palloidin Intensity) greater than 80%; (read-out: Palloidin Length) greater than 80%.
For `COc1cccc2c1CC[C@H]2Nc1nc(Cl)nc2c1ncn2[C@@H]1SC[C@@H](O)[C@H]1O` [Example 11, (2R,3R,4S)-2-[2-chloro-6-[[(1R)-4-methoxyindan-1-yl]amino]purin-9-yl]tetrahydrothiophene-3,4-diol], the activity at 10 µM by setting is: (read-out: Palloidin Area) 20 to 50%; (read-out: Palloidin Intensity) 20 to 50%; (read-out: Palloidin Length) 20 to 50%.
As to `COc1ccc2c(c1)CC[C@H]2Nc1nc(Cl)nc2c1ncn2[C@@H]1SC[C@@H](O)[C@H]1O` [Example 12, (2R,3R,4S)-2-[2-chloro-6-[[(1R)-5-methoxyindan-1-yl]amino]purin-9-yl]tetrahydrothiophene-3,4-diol], the activity at 10 µM was greater than 80% (read-out: Palloidin Area), greater than 80% (read-out: Palloidin Intensity) and greater than 80% (read-out: Palloidin Length).
Turning to `COc1ccc2c(c1)[C@H](Nc1nc(Cl)nc3c1ncn3[C@@H]1SC[C@@H](O)[C@H]1O)CC2` [Example 13, (2R,3R,4S)-2-[2-chloro-6-[[(1R)-6-methoxyindan-1-yl]amino]purin-9-yl]tetrahydrothiophene-3,4-diol], the activity at 10 µM fell in the range of 50 to 80% (read-out: Palloidin Area), 50 to 80% (read-out: Palloidin Intensity) and 50 to 80% (read-out: Palloidin Length).
For `COc1cccc2c1[C@H](Nc1nc(Cl)nc3c1ncn3[C@@H]1SC[C@@H](O)[C@H]1O)CC2` [Example 14, (2R,3R,4S)-2-[2-chloro-6-[[(1R)-7-methoxyindan-1-yl]amino]purin-9-yl]tetrahydrothiophene-3,4-diol], the activity at 10 µM is 50 to 80% (read-out: Palloidin Area), 50 to 80% (read-out: Palloidin Intensity) and 50 to 80% (read-out: Palloidin Length).
On to `O[C@@H]1[C@H](O)CS[C@H]1n1cnc2c(N[C@@H]3CCc4c(F)cccc43)nc(Cl)nc21` [Example 15, (2R,3R,4S)-2-[2-chloro-6-[[(1R)-4-fluoroindan-1-yl]amino]purin-9-yl]tetrahydrothiophene-3,4-diol], for which the activity at 10 µM was less than 20% (read-out: Palloidin Area), less than 20% (read-out: Palloidin Intensity) and less than 20% (read-out: Palloidin Length).
For the molecule `O[C@@H]1[C@H](O)CS[C@H]1n1cnc2c(N[C@@H]3CCc4cc(F)ccc43)nc(Cl)nc21` [Example 16, (2R,3R,4S)-2-[2-chloro-6-[[(1R)-5-fluoroindan-1-yl]amino]purin-9-yl]tetrahydrothiophene-3,4-diol], the activity at 10 µM (read-out: Palloidin Area) is less than 20%, the activity at 10 µM (read-out: Palloidin Intensity) was less than 20% and the activity at 10 µM (read-out: Palloidin Length) was less than 20%.
On to `O[C@@H]1[C@H](O)CS[C@H]1n1cnc2c(N[C@@H]3CCc4c(Cl)cccc43)nc(Cl)nc21` [Example 17, (2R,3R,4S)-2-[2-chloro-6-[[(1R)-4-chloroindan-1-yl]amino]purin-9-yl]tetrahydrothiophene-3,4-diol], for which the activity at 10 µM was less than 20% (read-out: Palloidin Area), less than 20% (read-out: Palloidin Intensity) and less than 20% (read-out: Palloidin Length).
With `O[C@@H]1[C@H](O)CS[C@H]1n1cnc2c(N[C@@H]3CCc4cc(Cl)ccc43)nc(Cl)nc21` [Example 18, (2R,3R,4S)-2-[2-chloro-6-[[(1R)-5-chloroindan-1-yl]amino]purin-9-yl]tetrahydrothiophene-3,4-diol], the activity at 10 µM reads like this: (read-out: Palloidin Area) less than 20%; (read-out: Palloidin Intensity) less than 20%; (read-out: Palloidin Length) less than 20%.
As for `O[C@@H]1[C@H](O)CS[C@H]1n1cnc2c(N[C@@H]3CCc4c(Br)cccc43)nc(Cl)nc21` [Example 19, (2R,3R,4S)-2-[2-chloro-6-[[(1R)-4-bromoindan-1-yl]amino]purin-9-yl]tetrahydrothiophene-3,4-diol], the activity at 10 µM is, setting by setting: (read-out: Palloidin Area) 20 to 50%; (read-out: Palloidin Intensity) 20 to 50%; (read-out: Palloidin Length) 20 to 50%.
In the case of `O[C@@H]1[C@H](O)CS[C@H]1n1cnc2c(N[C@@H]3CCc4cc(Br)ccc43)nc(Cl)nc21` [Example 20, (2R,3R,4S)-2-[2-chloro-6-[[(1R)-5-bromoindan-1-yl]amino]purin-9-yl]tetrahydrothiophene-3,4-diol], the activity at 10 µM was less than 20% (read-out: Palloidin Area), 20 to 50% (read-out: Palloidin Intensity) and less than 20% (read-out: Palloidin Length).
On to `O[C@@H]1[C@H](O)CS[C@H]1n1cnc2c(N[C@@H]3CCc4ccc(Br)cc43)nc(Cl)nc21` [Example 21, (2R,3R,4S)-2-[2-chloro-6-[[(1R)-6-bromoindan-1-yl]amino]purin-9-yl]tetrahydrothiophene-3,4-diol], for which the activity at 10 µM reads like this: (read-out: Palloidin Area) 20 to 50%; (read-out: Palloidin Intensity) 20 to 50%; (read-out: Palloidin Length) 20 to 50%.
Consider `Cc1cccc2c1CC[C@H]2Nc1nc(Cl)nc2c1ncn2[C@@H]1SC[C@@H](O)[C@H]1O` [Example 22, (2R,3R,4S)-2-[2-chloro-6-[[(1R)-4-methylindan-1-yl]amino]purin-9-yl]tetrahydrothiophene-3,4-diol], for which the “Palloidin Length” value was “+ + + +”. Besides, the activity at 10 µM (read-out: Palloidin Area) was less than 20%. Moreover, the activity at 10 µM (read-out: Palloidin Intensity) was less than 20%.
In the case of `O[C@@H]1[C@H](O)CS[C@H]1n1cnc2c(N[C@@H]3CCc4c3cccc4C(F)(F)F)nc(Cl)nc21` [Example 23, (2R,3R,4S)-2-[2-chloro-6-[[(1R)-4-(trifluoromethyl)indan-1-yl]amino]purin-9-yl]tetrahydrothiophene-3,4-diol], the activity at 10 µM is, setting by setting: (read-out: Palloidin Area) greater than 80%; (read-out: Palloidin Intensity) greater than 80%; (read-out: Palloidin Length) greater than 80%.
